Literature values in patent US20060188878A1, “Methods to predict ederma as a side effect of drug treatment” (priority 2002, published 2006).

Tested on: CML
[1] = of 54 CML patients treated with 300 mg or more

SMILES: Cc1ccc(NC(=O)c2ccc(CN3CCN(C)CC3)cc2)cc1Nc1nccc(-c2cccnc2)n1 [Imatinib]
- Patients with complete cytogenetic remission [1]: 7
- Patients with complete hematologic responses [1]: 53
- Patients with cytogenic responses [1]: 29
- Patients with major cytogenetic responses (0-35% of cells in metaphase positive for the Ph′ chromosome) [1]: 17
- Patients with major cytogenetic responses, percent (of the 54 patients who received the dose (300 mg or more)): 31%
